What was measured:
[1] = biological target: T1, purified recombinant human GAC (GLS1) (Homo sapiens, UniProt O94925); test: GLS1 Enzymatic Activity Assay (dual-coupled enzymatic assay); assay type: biochemical
T1 sequence (O94925 55-598 isoform O94925-3 limits assumed): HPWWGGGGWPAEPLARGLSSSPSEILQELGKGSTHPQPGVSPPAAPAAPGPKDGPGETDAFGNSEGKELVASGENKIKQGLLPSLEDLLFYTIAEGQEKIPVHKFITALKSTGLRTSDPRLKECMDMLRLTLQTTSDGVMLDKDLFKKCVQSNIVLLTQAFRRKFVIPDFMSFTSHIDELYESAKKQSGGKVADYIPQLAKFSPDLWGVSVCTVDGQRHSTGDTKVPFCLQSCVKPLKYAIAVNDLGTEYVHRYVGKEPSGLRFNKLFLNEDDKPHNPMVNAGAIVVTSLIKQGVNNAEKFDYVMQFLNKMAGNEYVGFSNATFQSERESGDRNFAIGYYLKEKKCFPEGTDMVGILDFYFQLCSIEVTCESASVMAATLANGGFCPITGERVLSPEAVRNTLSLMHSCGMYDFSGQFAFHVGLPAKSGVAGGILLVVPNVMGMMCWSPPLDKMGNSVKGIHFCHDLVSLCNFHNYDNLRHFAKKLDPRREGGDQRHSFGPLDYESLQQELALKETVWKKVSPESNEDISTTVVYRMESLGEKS
Experimental: GLS1 Enzymatic Activity Assay
The inhibition of purified recombinant human GAC by varying concentrations of inhibitors is assessed via a dual-coupled enzymatic assay. The glutamate produced by the glutaminase reaction is used by glutamate oxidase to produce α-ketoglutarate, ammonia, and hydrogen peroxide, with this hydrogen peroxide subsequently being used by horseradish peroxidase to produce resorufin in the presence of Amplex UltraRed. The assay buffer consisted of 50 mM Hepes (pH 7.4), 0.25 mM EDTA and 0.1 mM Triton X-100. GAC was incubated with potassium phosphate (10 minutes at room temperature) prior to incubation with inhibitor (10 minutes at room temperature). The final reaction conditions were as follows: 2 nM GAC, 50 mM potassium phosphate, 100 mU/mL glutamate oxidase (Sigma), 1 mM glutamine (Sigma), 100 mU/mL horseradish peroxidase (Sigma), 75 μM Amplex UltraRed (Life Technologies), and 1% (v/v) DMSO. The production of resorufin was monitored on a Perkin Elmer Envision plate reader (excitation 530 nm, emission 590 nm) either in a kinetics or endpoint mode (at 20 minutes). IC50 values were calculated using a four-parameter logistic curve fit.

A549 cells = test: Proliferation Assay (A549 cell viability, Cell Titer Fluor); assay type: cell-based; conditions: Homo sapiens, 72 hours
Experimental: A549 cells were routinely maintained in RPMI 1640 media (Gibco catalog number 11875-093) supplemented with 10% dialyzed fetal bovine serum using a humidified incubator (37° C., 5% CO2 and ambient O2). In preparation for the viability assay, cells were inoculated into 384-well black CulturPlates (Perkin Elmer) at a density of 1000 cells/well in a volume of 40 uL. Following a 24-hour incubation at 37° C., 5% CO2 and ambient O2, cells were treated with compound (10 uL) in a final DMSO concentration of 0.5% (v/v). The microplates were then incubated for 72 hours (37° C., 5% CO2 and ambient O2). Cell Titer Fluor (Promega) was subsequently added (10 uL of 6× reagent) and mixed for 15 minutes at room temperature. The plates were then incubated for 30 minutes (37° C., 5% CO2 and ambient O2) and fluorescence was subsequently read on the Perkin Elmer Envision plate reader. EC50 values were calculated using a four-parameter logistic curve fit.

| IC50 [1] [nM] | EC50 (A549 cells) [nM] | Compound |
| --- | --- | --- |
| < 100 | 100 to 500 | Cc1ccc(CNC(=O)c2cn(CCCCc3cc4c(C5=CCOCC5)c(C5CC5)[nH]c4nn3)nn2)cn1 [Example 196, 1-{4-[6-cyclopropyl-5-(3,6-dihydro-2H-pyran-4-yl)-7H-pyrrolo[2,3-c]pyridazin-3-yl]butyl}-N-[(6-mcthylpyridin-3-yl)methyl]-1H-1,2,3-triazole-4-carboxamide] |
| < 100 | 100 to 500 | COc1ncc(-c2c(C3CC3)[nH]c3nnc(CCCCn4cc(C(=O)NCc5cccc(OC(F)(F)F)c5)nn4)cc23)c(OC)n1 [Example 173, 1-{4-[6-cyclopropyl-5-(2,4-dimethoxypyrimidin-5-yl)-7H-pyrrolo[2,3-c]pyridazin-3-yl]butyl}-N-{[3-(trifluoromethoxy)phenyl]methyl}-1H-1,2,3-triazole-4-carboxamide] |
| 100 to 500 | 500 to 5000 | COc1cc(CNC(=O)c2cn(CCCCc3cc4cc(C5CC5)[nH]c4nn3)nn2)ccn1 [Example 44, 1-(4-{6-cyclopropyl-7H-pyrrolo[2,3-c]pyridazin-3-yl}butyl)-N-[(2-methoxypyridin-4-yl)methyl]-1H-1,2,3-triazole-4-carboxamide] |
| < 100 | 100 to 500 | CC(C)(O)c1ccc(CNC(=O)c2cn(CCCCc3cc4c(-c5ccc(C(F)(F)F)cc5)c(C5CC5)[nH]c4nn3)nn2)cn1 [Example 162, 1-(4-{6-cyclopropyl-5-[4-(trifluoromethyl)phenyl]-7H-pyrrolo[2,3-c]pyridazin-3-yl}butyl)-N-{[6-(2-hydroxypropan-2-yl)pyridin-3-yl]methyl}-1H-1,2,3-triazole-4-carboxamide] |
| < 100 | 100 to 500 | Cc1ccc(CNC(=O)c2cn(CCCCc3cc4c(CCc5ccccc5)c(C5CC5)[nH]c4nn3)nn2)cn1 [Example 100, 1-{4-[6-cyclopropyl-5-(2-phenylethyl)-7H-pyrrolo[2,3-c]pyridazin-3-yl]butyl}-N-[(6-methylpyridin-3-yl)methyl]-1H-1,2,3-triazole-4-carboxamide] |
| < 100 | 100 to 500 | O=C(NCc1ccc(CF)nc1)c1cn(CCCCc2cc3c(-c4ccc(F)cc4F)c(C4CC4)[nH]c3nn2)nn1 [Example 222, 1-{4-[6-cyclopropyl-5-(2,4-difluorophenyl)-7H-pyrrolo[2,3-c]pyridazin-3-yl]butyl}-N-{[6-(fluoromethyl)pyridin-3-yl]methyl}-1H-1,2,3-triazole-4-carboxamide] |
| < 100 | 100 to 500 | O=C(NCc1cccnc1)c1nnc(CCCCc2cc3cc(Cc4ccccc4)[nH]c3nn2)s1 [Example 76, 5-(4-{6-benzyl-7H-pyrrolo[2,3-c]pyridazin-3-yl}butyl)-N-(pyridin-3-ylmethyl)-1,3,4-thiadiazole-2-carboxamide] |
| < 100 | < 100 | CC(C)(O)c1ccc(CNC(=O)c2cn(CCCCc3cc4c(-c5ccoc5)c(C5CC5)[nH]c4nn3)nn2)cn1 [Example 171, 1-{4-[6-cyclopropyl-5-(furan-3-yl)-7H-pyrrolo[2,3-c]pyridazin-3-yl]butyl}-N-{[6-(2-hydroxypropan-2-yl)pyridin-3-yl]methyl}-1H-1,2,3-triazole-4-carboxamide] |
| 100 to 500 | > 5000 | O=C(NCc1ccccn1)c1cn(CCCCc2cc3cc(C4(O)COC4)[nH]c3nn2)nn1 [Example 21, 1-(4-(6-(3-hydroxyoxetan-3-yl)-7H-pyrrolo[2,3-c]pyridazin-3-yl)butyl)-N-(pyridin-2-ylmethyl)-1H-1,2,3-triazole-4-carboxamide] |
| < 100 | 100 to 500 | Cc1ccc(CNC(=O)c2cn(CCCCc3cc4cc(C5CCN(C(=O)OC(C)(C)C)CC5)[nH]c4nn3)nn2)cn1 [Example 95, ten-butyl 4-{3-[4-(4-{[(6-methylpyridin-3-yl)methyl]carbamoyl}-1H-1,2,3-triazol-1-yl)butyl]-7H-pyrrolo[2,3-c]pyridazin-6-yl}piperidine-1-carboxylate] |
| < 100 | < 100 | O=C(NCc1cc(C(F)(F)F)ccn1)c1cn(CCCCc2cc3c(-c4ccc(F)cc4F)c(C4CC4)[nH]c3nn2)nn1 [Example 219, 1-{4-[6-cyclopropyl-5-(2,4-difluorophenyl)-7H-pyrrolo[2,3-c]pyridazin-3-yl]butyl}-N-{[4-(trifluoromethyl)pyridin-2-yl]methyl}-1H-1,2,3-triazole-4-carboxamide] |
| 100 to 500 | 500 to 5000 | CNC(=O)c1cn(CC(F)CCc2cc3cc(-c4ccccc4F)[nH]c3nn2)nn1 (stereo not drawn) [Example 243, 1-{2-fluoro-4-[6-(2-fluorophenyl)-7H-pyrrolo[2,3-c]pyridazin-3-yl]butyl}-N-methyl-1H-1,2,3-triazole-4-carboxamide] |
| 100 to 500 | 500 to 5000 | O=C(NCc1ccncc1)c1cn(CCCCc2cc3cc(C4CC4)[nH]c3nn2)nn1 [Example 37, 1-(4-{6-cyclopropyl-7H-pyrrolo[2,3-c]pyridazin-3-yl}butyl)-N-(pyridin-4-ylmethyl)-1H-1,2,3-triazole-4-carboxamide] |
| < 100 | < 100 | CC(C)OC(=O)N1CC(c2cc3cc(CCCCn4cc(C(=O)NCc5cc(OC(F)(F)F)ccc5F)nn4)nnc3[nH]2)C1 [Example 131, propan-2-yl 3-(3-{4-[4-({[2-fluoro-5-(trifluoromethoxy)phenyl]methyl}carbamoyl)-1H-1,2,3-triazol-1-yl]butyl}-7H-pyrrolo[2,3-c]pyridazin-6-yl)azetidine-1-carboxylate] |
| < 100 | 100 to 500 | O=C(NCc1ccc(CF)nc1)c1cn(CCCCc2cc3c(C4CC4)c(C4CC4)[nH]c3nn2)nn1 [Example 214, 1-(4-{5,6-dicyclopropyl-7H-pyrrolo[2,3-c]pyridazin-3-yl}butyl)-N-{[6-(fluoromethyl)pyridin-3-yl]methyl}-1H-1,2,3-triazole-4-carboxamide] |
| 100 to 500 | 500 to 5000 | O=C(NCC1CC1)c1nnc(CCCCc2cc3cc(Cc4ccccc4)[nH]c3nn2)s1 [Example 77, 5-(4-{6-benzyl-7H-pyrrolo[2,3-c]pyridazin-3-yl}butyl)-N-(cyclopropylmethyl)-1,3,4-thiadiazole-2-carboxamide] |
| < 100 | 100 to 500 | O=C(NCc1ccccn1)c1nnc(CCCCc2cc3cc(Cc4ccccc4)[nH]c3nn2)s1 [Example 74, 5-(4-{6-benzyl-7H-pyrrolo[2,3-c]pyridazin-3-yl}butyl)-N-(pyridin-2-ylmethyl)-1,3,4-thiadiazole-2-carboxamide] |
| 100 to 500 | 500 to 5000 | Cc1cc(CNC(=O)c2cn(CCCCc3cc4cc(C5CC5)[nH]c4nn3)nn2)nn1C [Example 50, 1-(4-{6-cyclopropyl-7H-pyrrolo[2,3-c]pyridazin-3-yl}butyl)-N-[(1,5-dimethyl-1H-pyrazol-3-yl)methyl]-1H-1,2,3-triazole-4-carboxamide] |
| 100 to 500 | 500 to 5000 | CC(C)(C)c1cc2cc(CCCCn3ccc(NC(=O)Cc4ccccc4)cc3=O)nnc2[nH]1 [Example 30, N-[1-(4-{6-tert-butyl-7H-pynolo[2,3-c]pyridazin-3-yl}butyl)-2-oxo-1,2-dihydropyridin-4-yl]-2-phenylacetamide] |
| 100 to 500 | > 5000 | O=C(NCC(F)(F)F)c1nnc(CCCCc2cc3cc(Cc4ccccc4)[nH]c3nn2)s1 [Example 81, 5-(4-{6-benzyl-7H-pyrrolo[2,3-c]pyridazin-3-yl}butyl)-N-(2,2,2-trifluoroethyl)-1,3,4-thiadiazole-2-carboxamide] |
| 100 to 500 | 500 to 5000 | CC(C)Cc1cc2cc(CCCCn3cc(C(=O)NCc4ccccc4)nn3)nnc2[nH]1 [Example 13, N-benzyl-1-(4-(6-isobutyl-7H-pyrrolo[2,3-c]pyridazin-3-yl)butyl)-1H-1,2,3-triazole-4-carboxamide] |
